Publication PMC4736406 (Stem Cells International, 2016)
Counter-ions that a name gives are not always drawn. One block for each compound: values may come before it.

Tests used:
HepG2 cells = assay: Image based high content analysis (HCA), fixed and live assays, in HepG2
Procedure: Briefly, the cells were grown in DMEM supplemented with 10% heat inactivated FBS, 1% penicillin-streptomycin (PEST), 1% sodium pyruvate, and 1% nonessential amino acids. Cells were passaged at 1 : 8 or 1 : 6 every 3-4 days when they reach 75–80% confluence. Seeding density was optimized for HCA application to ensure that the cells were in a monolayer (5000 cells per well in 96-well plates) for precise imaging. The cells were grown for 48 h to attach and stabilize. The experiments performed with HepG2 cells were designed to ensure that each assay was performed with cells in a similar growth phase.
Each concentration was assayed in triplicate wells. […] The experimental process is illustrated in Figure 2.
And finally, TOTO-3 was used for assessing PMP.
The cells were imaged using an Olympus ScanR system.
All other fluorescence signals were considered as subobjects.

[1] = system: hiPSC derived hepatocytes (hiPS-HEP);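 also: hiPS-HEP obtained from ChiPSC4 through definitive endoderm under serum- and feeder-free conditions in 96-well plates, fluorescence imaging, each concentration run in triplicate wells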
Excerpt: (§1) For hepatic differentiation, a serum- and feeder-free procedure recapitulating liver development was applied. First, ChiPSC4 was guided to differentiate into definitive endoderm using the Cellartis DE Diff Kit (Takara Bio Europe AB; Y30030), containing complete media and coating solution for differentiation of hPSC to DE cells in 2D culture. On day 7 of differentiation, the DE cells were enzymatically dissociated and reseeded into fibronectin coated 96-well plates. […] Wells of 96-well plates were coated by adding fibronectin solution 0.15 mL per cm^2 to the wells and let to incubate for >60 min at RT. […] Next, the cell suspension was centrifuged for 5 min at 300 g at RT, the supernatant was removed, and the cell pellet was resuspended in warm Hepatocyte Thawing and Seeding medium (Cellartis Hepatocyte Diff Kit; Takara Bio Europe AB; Y30050). Prior to seeding of cells, excess coating was removed and 150 K DE cells/cm^2 were seeded in the 96-well plates. On days 9 and 11 (counted from the start of ChiPSC4 differentiation), medium was changed using Hepatocyte Progenitor Medium (Cellartis Hepatocyte Diff Kit).
(§2) The cells were treated for 48 h with compounds at varying concentrations (half log dilution from the top concentration). […] The stock solutions were prepared in DMSO or water and were diluted in culture medium to obtain the final concentration. Each concentration was assayed in triplicate wells. Vehicle control wells were included and the final DMSO concentration in the medium never exceeded 0.5% (v/v). Each batch had two plates each for fixed and live assays.
(§3) LipidTOX Green neutral lipids and LipidTox Red phospholipidosis were used for identifying neutral lipid and phospholipid formation within the cells. MMP changes (Δψm) within the cell were measured using MitoTracker orange. Carboxy-H2DCFDA (6-carboxy-2′,7′-dichlorodihydrofluorescein diacetate) an acetylated fluorescent was used for measuring ROS. And finally, TOTO-3 was used for assessing PMP.
(§4) The fluorescence probes were grouped into two sets according to their optical compatibility and requirement of fixed or live material. […] The fluorescent probes for neutral lipids and phospholipids required the cells to be fixed and were assigned to the fixed assay. The probes MitoTracker orange, carboxy-H2DCFDA, and TOTO-3 were assigned to the live assay.
(§5) Following compound incubation, probes were administered to the cultures of the live assay. […] After incubation for 45 min at optimal cell culture conditions, the cells were changed to phenol red (PR) free medium for live cell imaging. For fixed assay, LipidTox Red probe was added with the compounds, and after 48 h the cells were fixed in 4% PFA supplemented with 1X Hoechst stain for 30 min at room temperature. Subsequently, cells were washed with PBS^+/+ and 1X LipidTOX Green stain diluted in PBS^+/+ was incubated with the cells for 30 min at room temperature. The plates were imaged without removing the buffer with probe.
(§6) The cells were imaged using an Olympus ScanR system. Prior to image acquisition, the heating system and CO2 gas flow were started to ensure optimal conditions in the ScanR chamber for live cell analysis. The incubator was set to 37°C with 5% CO2 and relative humidity of 90%. […] 20X long distance objective with NA 0.45 was used to image distinct fluorescence channels. In order to cover the entire well and also to capture maximum cell events sixteen fields per well (4 × 4 tile grid spread equally) were imaged. The channel exposure time for LipidTOX Green, LipidTOX Red, MitoTracker orange, and carboxy-H2DCFHDA were set based on the fluorescence of the negative control wells and were set constant within each plate. Exposure time for Hoechst and TOTO-3 was set in the range of 1–10 ms depending on cellular fluorescence intensity.
(§7) The acquired images were analyzed using ScanR analysis program from Olympus.

[2] = plasma; no reference given; read-out: C max (maximum plasma concentration of the drug); cited from earlier work
[3] = system: hiPSC derived hepatocytes (hiPS-HEP); assay: Image based high content analysis (HCA), fixed and live assays, in hiPSC derived hepatocytes;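 also: hiPS-HEP obtained from ChiPSC4 through definitive endoderm under serum- and feeder-free conditions in 96-well plates, fluorescence imaging, each concentration run in triplicate wells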
Excerpt: as §1, §2, §3, §4, §5, §6, §7

[4] = HepG2, fixed assay, 48 h, p<0.05 vs control
[5] = HepG2, fixed, at 100 µM (Amiodarone HCL at […])
[6] = HepG2, live assay, 48 h, p<0.05 vs control
[7] = HepG2, live, at 100 µM (Amiodarone HCL at […])
[8] = hiPSC derived hepatocytes, at concentrations higher than 100 μM, similar to control up to 100 μM

IC50/EC50 Nucleus Area (HepG2 cells; HepG2, fixed assay, 48 h): 39.5 µM
IC50/EC50 Nucleus Cell count (HepG2 cells; HepG2, fixed assay, 48 h): 7.6 µM
IC50/EC50 Nucleus MI (HepG2 cells; HepG2, fixed assay, 48 h): 140 µM
IC50/EC50 Steatosis Area (HepG2 cells; HepG2, fixed assay, 48 h): 30.6 µM
IC50/EC50 Steatosis Count (HepG2 cells; HepG2, fixed assay, 48 h): 19.5 µM
IC50/EC50 Steatosis MI (HepG2 cells; HepG2, fixed assay, 48 h): 23.6 µM
MEC, steatosis area (S, A) (HepG2 cells; [4]): 125 µM
MEC, steatosis mean intensity (S, MI) (HepG2 cells; [4]): 39.5 µM
IC50/EC50 MMP MI (HepG2 cells; HepG2, live assay, 48 h): 345 µM
IC50/EC50 Nucleus Area (HepG2 cells; HepG2, live assay, 48 h): 29.1 µM
IC50/EC50 Nucleus Cell count (HepG2 cells; HepG2, live assay, 48 h): 7.2 µM
IC50/EC50 Nucleus MI (HepG2 cells; HepG2, live assay, 48 h): 25.0 µM
IC50/EC50 PMP MI (HepG2 cells; HepG2, live assay, 48 h): 147 µM
IC50/EC50 ROS MI (HepG2 cells; HepG2, live assay, 48 h): 4.6 µM
MEC, MMP mean intensity (HepG2 cells; [6]): 12.5 µM
MEC, ROS mean intensity (HepG2 cells; [6]): 12.5 µM
Structure (SMILES): CCCCc1oc2ccccc2c1C(=O)c1cc(I)c(OCCN(CC)CC)c(I)c1 [Amiodarone, amiodarone hydrochloride]
Detection of phospholipid accumulation / phospholipidosis (HepG2 cells; HepG2): false negative prediction
Category based on degree of injury (HepG2 cells; HepG2, […] for amiodarone, 100 μM for the others): severely
Severity (sum of individual scores, degree of injury) (HepG2 cells; HepG2, at 100 µM (Amiodarone HCL at […])): 20
IC50/EC50 Phospholipidosis Area (HepG2 cells; HepG2, fixed assay, 48 h): 7.3 µM
IC50/EC50 Phospholipidosis Count (HepG2 cells; HepG2, fixed assay, 48 h): 8.9 µM
IC50/EC50 Phospholipidosis MI (HepG2 cells; HepG2, fixed assay, 48 h): 35.6 µM
Minimal effective concentration (MEC), viability cell count (V, CC) (HepG2 cells; [4]): 4 µM
Degree of injury score, Neutral Lipids Area (HepG2 cells; [5]): 0 (variation lower than 25%)
Degree of injury score, Neutral Lipids C (HepG2 cells; [5]): 2 (variation 150-300%)
Degree of injury score, Neutral Lipids MI (HepG2 cells; [5]): 3 (variation >300%)
Degree of injury score, Nucleus Area (HepG2 cells; [5]): 1 (variation ± 20-40%)
Degree of injury score, Nucleus CC (HepG2 cells; [5]): 3 (variation ± 60-100%)
Degree of injury score, Nucleus MI (HepG2 cells; [5]): 1 (variation ± 20-40%)
Degree of injury score, Phospholipids Area (HepG2 cells; [5]): 1 (variation 25-150%)
Degree of injury score, Phospholipids C (HepG2 cells; [5]): 0 (variation lower than 25%)
Degree of injury score, Phospholipids MI (HepG2 cells; [5]): 0 (variation lower than 25%)
Degree of injury (category) (HepG2 cells; HepG2, isomolar concentration of 100 µM ([…] for amiodarone)): Severe hepatotoxicity (severely toxic (≥15))
MEC, viability cell count (V, CC) (HepG2 cells; [6]): 12.5 µM
Degree of injury score, MMP MI (HepG2 cells; [7]): 1 (variation ± 20-40%)
Degree of injury score, Nucleus Area (HepG2 cells; [7]): 1 (variation ± 20-40%)
Degree of injury score, Nucleus CC (HepG2 cells; [7]): 3 (variation ± 60-100%)
Degree of injury score, Nucleus MI (HepG2 cells; [7]): 2 (variation ± 40-60%)
Degree of injury score, PMP MI (HepG2 cells; [7]): 1 (variation ± 20-40%)
Degree of injury score, ROS MI (HepG2 cells; [7]): 1 (variation ± 20-40%)
Concentration below which no cytotoxic effects were displayed ([1]; human, 48 h): 12.5 µM

Structure (SMILES): CN(C)[C@@H]1C(O)=C(C(N)=O)C(=O)[C@@]2(O)C(O)=C3C(=O)c4c(O)cccc4[C@@](C)(O)[C@H]3C[C@@H]12 [Tetracycline, tetracycline hydrochloride]
Significant changes on MMP (HepG2 cells; HepG2): not detected
IC50/EC50 Nucleus Area (HepG2 cells; HepG2, fixed assay, 48 h): 464 µM
IC50/EC50 Nucleus Cell count (HepG2 cells; HepG2, fixed assay, 48 h): 558 µM
IC50/EC50 Nucleus MI (HepG2 cells; HepG2, fixed assay, 48 h): 348 µM
IC50/EC50 Steatosis Area (HepG2 cells; HepG2, fixed assay, 48 h): 287 µM
IC50/EC50 Steatosis Count (HepG2 cells; HepG2, fixed assay, 48 h): 36.3 µM
IC50/EC50 Steatosis MI (HepG2 cells; HepG2, fixed assay, 48 h): 361 µM
IC50/EC50 MMP MI (HepG2 cells; HepG2, live assay, 48 h): 265 µM
IC50/EC50 Nucleus Area (HepG2 cells; HepG2, live assay, 48 h): 336 µM
IC50/EC50 Nucleus Cell count (HepG2 cells; HepG2, live assay, 48 h): 836 µM
IC50/EC50 Nucleus MI (HepG2 cells; HepG2, live assay, 48 h): 959 µM
IC50/EC50 ROS MI (HepG2 cells; HepG2, live assay, 48 h): 1149 µM
MEC, PMP mean intensity (HepG2 cells; human, 48 h): 1000 µM
MEC, ROS mean intensity (HepG2 cells; human, 48 h): 1000 µM
MEC, nuclear changes area (NC, A) (HepG2 cells; human, 48 h): 316 µM
MEC, phospholipidosis mean intensity (PL, MI) (HepG2 cells; human, 48 h): 100 µM
MEC, steatosis droplet count (S, C) (HepG2 cells; human, 48 h): 100 µM
MEC, steatosis mean intensity (S, MI) (HepG2 cells; human, 48 h): 100 µM
Minimal effective concentration (MEC), viability cell count (V, CC) (HepG2 cells; human, 48 h): 316 µM
Cmax [2]: 14.2 µM
Cytotoxic effects [1]: minimal cytotoxic effects
Phospholipid parameters / accumulation of phospholipids [1]: not detected
Significant changes in PMP [1]: did not generate any significant changes
Significant changes on MMP [1]: not detected
Concentration at which increase in lipid accumulation / lipid droplets was observed ([1]; human, 48 h): 32 µM
Concentration at which mitochondrial membrane potential (MMP) increased ([1]; human, 48 h): 32 µM
Concentration at which nuclear changes were evident (nuclear intensity and area) ([1]; human, 48 h): 320 µM
Concentration at which oxidative stress increased ([1]; human, 48 h): 100 µM
MEC, ROS mean intensity ([1]; human, 48 h): 316 µM
MEC, nuclear changes area (NC, A) ([1]; human, 48 h): 316 µM
MEC, steatosis droplet count (S, C) ([1]; human, 48 h): 316 µM
MEC, steatosis mean intensity (S, MI) ([1]; human, 48 h): 1000 µM
MEC, viability cell count (V, CC) ([1]; human, 48 h): 1000 µM
Minimal effective concentration (MEC), viability cell count (V, CC) ([1]; human, 48 h): 1000 µM
IC50/EC50 Nucleus Area ([3]; hiPS-HEP, fixed assay, 48 h): 105 µM
IC50/EC50 Nucleus Cell count ([3]; hiPS-HEP, fixed assay, 48 h): 432 µM
IC50/EC50 Nucleus MI ([3]; hiPS-HEP, fixed assay, 48 h): 211 µM
IC50/EC50 Steatosis Area ([3]; hiPS-HEP, fixed assay, 48 h): 213 µM
IC50/EC50 Steatosis Count ([3]; hiPS-HEP, fixed assay, 48 h): 184 µM
IC50/EC50 Steatosis MI ([3]; hiPS-HEP, fixed assay, 48 h): 418 µM
IC50/EC50 Nucleus Area ([3]; hiPS-HEP, live assay, 48 h): 211 µM
IC50/EC50 Nucleus Cell count ([3]; hiPS-HEP, live assay, 48 h): 243 µM
IC50/EC50 Nucleus MI ([3]; hiPS-HEP, live assay, 48 h): 380 µM
IC50/EC50 ROS MI ([3]; hiPS-HEP, live assay, 48 h): 160 µM
Increase of mean nuclear intensity [3, 8]: 12%
Increase of nuclear area [3, 8]: 14%
Increase of PMP compared to the control ([3]; hiPSC derived hepatocytes, at the highest concentration): 8%
